Molecules are shown by their SMILES. In brackets after ≈: the same amount, converted by molar mass. Like-named read-outs stand apart in the source and are kept apart here. A value given as a limit tells only on which side of the number the result lay.

The test system of one data set is fresh sheep erythrocytes. Nature of the data set: hemolytic assay. The class given is cell-based. The following applies: sheep, 30 min, pH 7.2. How it is done:
Hemolytic activity of model peptides was assessed on fresh sheep erythrocytes (Fitzgerald Inc., Concord, Mass.). […] The resulting supernatant was diluted by a factor of 40 in distilled water. The absorbances of the supernatant at λ=540 nm (OD540) were measured in the UV Spectrophotometer. […] Hemolytic index (HI) was defined as HI═HD50/IC50.

The subject of the next data set is B. Subtilis (ATCC 6633). Nature of the data set: microbe, parasite or virus in culture. The following applies: Bacillus subtilis, ATCC6633, read-out: MIC50 B. subtilis.
The subject of data set [1] is multi-drug resistant strain S. aureus. Nature of the data set: microbe, parasite or virus in culture. The following applies: Staphylococcus aureus, read-out: MIC50 S. aureus.
Data set [2] concerns B. anthracis (32F2 Sterne). Nature of the data set: microbe, parasite or virus in culture. The settings on record: Bacillus anthracis, read-out: MIC50 B. anthracis.
The subject of data set [3] is multi-drug resistant strain S. aureus.
Data set [4] concerns ampicillin- and streptomycin-resistant E. coli (D31). Nature of the data set: microbe, parasite or virus in culture. The following applies: Escherichia coli, read-out: MIC50 E. coli.
The subject of another data set is E. faecalis (29212). As to the kind of experiment: microbe, parasite or virus in culture. The following applies: Enterococcus faecalis, read-out: MIC50 E. faecalis.
For data set [5], the system named is ampicillin- and streptomycin-resistant E. coli (D31).

Take `CC(C)(O/N=C(\C(=O)N[C@@H]1C(=O)N2C(C(=O)[O-])=C(C[n+]3ccccc3)CS[C@H]12)c1csc(N)n1)C(=O)O` [Ceftazidime]: in the data set on fresh sheep erythrocytes, the “HD50 (peptide concentration corresponding to 50% hemolysis)” value was more than 2000 µg/mL. Besides, the MIC50 in the data set on B. Subtilis (ATCC 6633) is 6.2 µg/mL (≈ 11.3 µM); in data set [1] it was 63 µg/mL (≈ 115 µM); in data set [2], 91 µg/mL (≈ 166 µM); in data set [4] it was 44 µg/mL (≈ 80.5 µM); in the data set with E. faecalis (29212), 14 µg/mL (≈ 25.6 µM). In addition, the “MIC50 S. aureus” value in data set [3] (75 mM NaCl) and in data set [3] (150 mM NaCl) was 63 µg/mL (≈ 115 µM) in each case. Further, the “MIC50 E. coli” value in data set [5] (75 mM NaCl) and in data set [5] (150 mM NaCl) was 44 µg/mL (≈ 80.5 µM) in each case.
